In patent publication US20250171423A1, “PHARMACEUTICAL COMPOUNDS FOR THE TREATMENT OF COMPLEMENT MEDIATED DISORDERS” (Achillion Pharmaceuticals, Inc., priority 2020, published 2025):
pIC50: −log10 of the molar value.

Each molecule was assayed against T1, Human complement C1s enzyme (Homo sapiens, UniProt P09871) (assay: Human C1s Enzyme Assay). Conditions: human C1s 1.16 nM, 5 min preincubation, substrate Z-L-Lys-SBzl 100 μM, A405; read-out: C1s Protease Activity.
T1 construct: purified from human serum, Complement Technology, Inc; purchased Complement Technology, Inc; host or cells: human serum
T1 sequence (P09871 438-688 limits assumed): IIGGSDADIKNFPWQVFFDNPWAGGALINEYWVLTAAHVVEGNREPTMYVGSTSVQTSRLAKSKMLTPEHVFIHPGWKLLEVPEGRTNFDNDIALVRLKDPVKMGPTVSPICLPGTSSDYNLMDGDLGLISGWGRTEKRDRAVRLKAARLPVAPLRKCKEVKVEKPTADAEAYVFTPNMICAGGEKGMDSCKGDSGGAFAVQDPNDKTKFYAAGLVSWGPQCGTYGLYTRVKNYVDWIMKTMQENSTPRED
T1 sequence (P09871 16-437 partner limits assumed): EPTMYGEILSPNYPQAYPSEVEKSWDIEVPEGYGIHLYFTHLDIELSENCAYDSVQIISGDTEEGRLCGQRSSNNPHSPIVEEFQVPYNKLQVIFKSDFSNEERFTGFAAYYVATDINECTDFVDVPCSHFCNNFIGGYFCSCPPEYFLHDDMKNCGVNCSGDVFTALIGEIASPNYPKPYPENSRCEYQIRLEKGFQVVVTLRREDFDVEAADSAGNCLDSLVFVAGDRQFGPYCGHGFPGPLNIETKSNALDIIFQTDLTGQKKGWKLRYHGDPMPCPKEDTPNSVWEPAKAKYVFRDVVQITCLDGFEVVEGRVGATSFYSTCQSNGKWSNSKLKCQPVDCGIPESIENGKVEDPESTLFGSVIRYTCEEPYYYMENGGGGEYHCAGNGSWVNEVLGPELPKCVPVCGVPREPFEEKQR
Type: biochemical
How it was run: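 C1s purified from human serum (1.16 nM final) was preincubated with compound for 5 min at room temperature in 50 mM Tris, 1 M NaCl, pH 7.5. Z-L-Lys-SBzl and DTNB were then added at 100 μM each, and A405 was followed for 30 min. IC50 came from nonlinear regression of reaction rates.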

Row | pIC50 | SMILES
1 | > 7.00 | N=C(N)c1csc(CNC(=O)[C@@H]2CC(c3nccs3)CN2C(=O)CNC(=O)c2ccc(Oc3ccccc3)cc2)c1 (stereo in doubt) [Compound 209, (2S,4R)-N-((4-carbamimidoylthiophen-2-yl)methyl)-1-((4-phenoxybenzoyl)glycyl)-4-(thiazol-2-yl)pyrrolidine-2-carboxamide]
2 | > 7.00 | C[C@@]12C[C@@H]1N(C(=O)CNC(=O)c1ccc(Oc3ccccc3)cc1)[C@H](C(=O)NCc1nc(C(=N)N)cs1)C2 [Compound 2, (1S,3S,5S)-N-((4-carbamimidoylthiazol-2-yl)methyl)-5-methyl-2-((4-phenoxy-benzoyl)glycyl)-2-azabicyclo[3.1.0]hexane-3-carboxamide]
3 | > 7.00 | C[C@@]12C[C@@H]1N(C(=O)CNC(=O)c1cc3cc(Oc4ccccc4)ccc3o1)[C@H](C(=O)NCc1cc(C(=N)N)cs1)C2 [Compound 132, (1S,3S,5S)-N-((4-carbamimidoylthiophen-2-yl)methyl)-5-methyl-2-((5-phenoxybenzofuran-2-carbonyl)glycyl)-2-azabicyclo[3.1.0]hexane-3-carboxamide]
4 | 6.00 to 7.00 | C[C@@H](NC(=O)[C@@H]1C[C@]2(C)C[C@@H]2N1C(=O)CNC(=O)c1ccc(Oc2ccccc2)cc1)c1cc(C(=N)N)cs1 (single isomer, unassigned) [Compound 49, (1S,3S,5S)-N-((R*)-1-(4-carbamimidoylthiophen-2-yl)ethyl)-5-methyl-2-((4-phenoxy-benzoyl)glycyl)-2-azabicyclo[3.1.0]hexane-3-carboxamide]
5 | < 6.00 | COc1cccc(CNC(=O)[C@@H]2C[C@]3(C)C[C@@H]3N2C(=O)CNC(=O)c2ccc(Oc3ccccc3)cc2)c1 [Compound 42, (1S,3S,5S)-N-(3-methoxybenzyl)-5-methyl-2-((4-phenoxybenzoyl)-glycyl)-2-azabicyclo[3.1.0]hexane-3-carboxamide]
6 | > 7.00 | N=C(N)c1ccc(CNC(=O)[C@@H]2CC3(CN2C(=O)CNC(=O)CCCOc2ccccc2)OCCO3)s1 [Compound 83, (S)-N-((5-carbamimidoylthiophen-2-yl)methyl)-7-((4-phenoxybutanoyl)glycyl)-1,4-dioxa-7-azaspiro[4.4]nonane-8-carboxamide]
7 | 6.00 to 7.00 | CC1(C)SCN(C(=O)CNC(=O)CCCOc2ccccc2)[C@@H]1C(=O)NCc1cc(C(=N)N)cs1 [Compound 124, (R)-N-((4-carbamimidoylthiophen-2-yl)methyl)-5,5-dimethyl-3-((4-phenoxybutanoyl)glycyl)thiazolidine-4-carboxamide]
8 | 6.00 to 7.00 | C[C@@H](NC(=O)[C@@H]1C[C@@]2(CN1C(=O)CNC(=O)CCCOc1ccccc1)CC2(F)F)c1cc(C(=N)N)cs1 [Compound 105, (3S,6S)-N-((R)-1-(4-carbamimidoylthiophen-2-yl)ethyl)-1,1-difluoro-5-((4-phenoxy-butanoyl)glycyl)-5-azaspiro[2.4]heptane-6-carboxamide]
9 | < 6.00 | N=C(N)c1csc([C@H](NC(=O)[C@@H]2C[C@@H](OC(F)F)CN2C(=O)CNC(=O)c2ccc(Oc3ccccc3)cc2)C2CC2)c1 [Compound 183, (2S,4R)-N-((R)-(4-carbamimidoylthiophen-2-yl)(cyclopropyl)methyl)-4-(difluoromethoxy)-1-((4-phenoxybenzoyl)glycyl)pyrrolidine-2-carboxamide]

Continued, molecule first:

Row | SMILES | pIC50
10 | N=C(N)c1ccc(CNC(=O)[C@@H]2CC3(CN2C(=O)CNC(=O)c2ccc(Oc4ccccc4)cc2)OCCO3)cn1 [Compound 71, (S)-N-((6-carbamimidoylpyridin-3-yl)methyl)-7-((4-phenoxybenzoyl)glycyl)-1,4-dioxa-7-azaspiro[4.4]nonane-8-carboxamide] | > 7.00
11 | C[C@@]12C[C@@H]1N(C(=O)CNC(=O)c1ccc(Oc3ccccc3)cc1)[C@H](C(=O)NCc1cc(-c3noc(=O)[nH]3)cs1)C2 [Compound 34, (1S,3S,5S)-5-methyl-N-((4-(5-oxo-4,5-dihydro-1,2,4-oxadiazol-3-yl)thiophen-2-yl)methyl)-2-((4-phenoxybenzoyl)glycyl)-2-azabicyclo[3.1.0]hexane-3-carboxamide] | < 6.00
12 | CO/N=C(\N)c1csc(CNC(=O)[C@@H]2C[C@]3(C)C[C@@H]3N2C(=O)CNC(=O)c2ccc(Oc3ccccc3)cc2)c1 [Compound 6, (1S,3S,5S)-N-((4-((Z)-N′-methoxycarbamimidoyl)thiophen-2-yl)methyl)-5-methyl-2-((4-phenoxybenzoyl)glycyl)-2-azabicyclo[3.1.0]hexane-3-carboxamide] | < 6.00
13 | C[C@@H](NC(=O)[C@@H]1C[C@]2(C)C[C@@H]2N1C(=O)CNC(=O)CCCCc1ccccc1)c1cc(C(=N)N)cs1 [Compound 130, (1S,3S,5S)-N-((R)-1-(4-carbamimidoylthiophen-2-yl)ethyl)-5-methyl-2-((5-phenyl-pentanoyl)glycyl)-2-azabicyclo[3.1.0]hexane-3-carboxamide] | > 7.00
14 | N=C(N)c1csc(CNC(=O)[C@@H]2CC3(CC3)CN2C(=O)CNC(=O)CCCOc2ccccc2)c1 [Compound 55, (S)-N-((4-carbamimidoylthiophen-2-yl)methyl)-5-((4-phenoxybutanoyl)glycyl)-5-azaspiro[2.4]heptane-6-carboxamide] | > 7.00
15 | COC[C@@]12C[C@@H]1N(C(=O)CNC(=O)CCCOc1ccccc1)[C@H](C(=O)NCc1cc(C(=N)N)cs1)C2 [Compound 63, (1S,3S,5R)-N-((4-carbamimidoylthiophen-2-yl)methyl)-5-(methoxymethyl)-2-((4-phenoxybutanoyl)glycyl)-2-azabicyclo[3.1.0]hexane-3-carboxamide] | > 7.00
16 | N=C(N)c1csc([C@H](NC(=O)[C@@H]2C[C@@H](OC(F)F)CN2C(=O)CNC(=O)c2ccc(Oc3ccccc3)cc2)C2CCCC2)c1 [Compound 193, (2S,4R)-N-((R)-(4-carbamimidoylthiophen-2-yl)(cyclopentyl)methyl)-4-(difluoromethoxy)-1-((4-phenoxybenzoyl)glycyl)pyrrolidine-2-carboxamide] | < 6.00
17 | N=C(N)c1csc(CNC(=O)[C@@H]2C[C@@]3(CN2C(=O)CNC(=O)c2ccc(Oc4ccccc4)cc2)CC3(F)F)c1 [Compound 21, (3S,6S)-N-((4-carbamimidoylthiophen-2-yl)methyl)-1,1-difluoro-5-((4-phenoxy-benzoyl)glycyl)-5-azaspiro[2.4]heptane-6-carboxamide] | > 7.00
18 | CC(CCC(=O)NCC(=O)N1CC2(C[C@H]1C(=O)NCc1cc(C(=N)N)cs1)OCCO2)Oc1ccccc1 (stereo partly drawn) [Compound 97, (8S)-N-((4-carbamimidoylthiophen-2-yl)methyl)-7-((4-phenoxypentanoyl)glycyl)-1,4-dioxa-7-azaspiro[4.4]nonane-8-carboxamide] | > 7.00
19 | C[C@@]12C[C@@H]1N(C(=O)CNC(=O)c1ccccc1Oc1ccccc1)[C@H](C(=O)NCc1cc(C(=N)N)cs1)C2 [Compound 145, (1S,3S,5S)-N-((4-carbamimidoylthiophen-2-yl)methyl)-5-methyl-2-((2-phenoxybenzoyl)glycyl)-2-azabicyclo[3.1.0]hexane-3-carboxamide] | > 7.00
20 | N=C(N)c1csc(CNC(=O)[C@@H]2C[C@@H](OC3CC3)CN2C(=O)CNC(=O)c2ccc(Oc3ccccc3)cc2)c1 [Compound 110, (2S,4R)-N-((4-carbamimidoylthiophen-2-yl)methyl)-4-cyclopropoxy-1-((4-phenoxy-benzoyl)glycyl)pyrrolidine-2-carboxamide] | > 7.00
21 | C[C@H](NC(=O)[C@@H]1C[C@]2(C)C[C@@H]2N1C(=O)CNC(=O)c1ccc(Oc2ccccc2)cc1)c1cc(-c2ncc[nH]2)cs1 [Compound 254, (1S,3S,5S)-N-((S)-1-(4-(1H-imidazol-2-yl)thiophen-2-yl)ethyl)-5-methyl-2-((4-phenoxybenzoyl)glycyl)-2-azabicyclo[3.1.0]hexane-3-carboxamide] | < 6.00
22 | N=C(N)c1csc(CNC(=O)[C@@H]2C[C@H](c3ccccc3)CN2C(=O)CNC(=O)c2ccc(Oc3ccccc3)cc2)c1 [Compound 15, (2S,4R)-N-((4-carbamimidoylthiophen-2-yl)methyl)-1-((4-phenoxybenzoyl)glycyl)-4-phenylpyrrolidine-2-carboxamide] | 6.00 to 7.00
23 | C[C@@]12C[C@@H]1N(C(=O)CNC(=O)c1ccc(Oc3ccccc3)cc1)[C@H](C(=O)NCc1cc3c(s1)CCN=C3N)C2 [Compound 182, (1S,3S,5S)-N-((4-amino-6,7-dihydrothieno[3,2-c]pyridin-2-yl)methyl)-5-methyl-2-((4-phenoxybenzoyl)glycyl)-2-azabicyclo[3.1.0]hexane-3-carboxamide] | < 6.00
24 | N=C(N)c1csc([C@H](NC(=O)[C@@H]2C[C@@H](OC(F)F)CN2C(=O)CNC(=O)c2ccc(Oc3ccccc3)cc2)c2ccccc2)c1 [Compound 200, (2S,4R)-N-((R)-(4-carbamimidoylthiophen-2-yl)(phenyl)methyl)-4-(difluoromethoxy)-1-((4-phenoxybenzoyl)glycyl)pyrrolidine-2-carboxamide] | < 6.00
